# Laboratory results: ChEMBL document CHEMBL3507680, “University of Dundee, Gates Library screen for HepG2 cell viability”
# Assay: Human HepG2 cell viability assay in 384 well format
# Format: toxicity, cell-based
# Parameters: dose 125 nL, time 70.5 hour; cytotoxicity at 70.5 h: concentration not given beside the values
# Details: HepG2 cells, read-out: Inhibition
row,SMILES,cytotoxicity at 70.5 h [%]
1,CC(C)(C)CC(=O)NCC(=O)NCC(O)c1ccc2ccccc2c1 (configuration not stated),4.11
2,Cc1c(C(=O)NCC(C)C)nnn1-c1cccc2c1CCN(C)C2,1.85
3,Cc1cn2c(CN(C)C(=O)c3cnc(N)c(Cl)c3)c(C)nc2s1,11.9
4,Cc1nc[nH]c1CN1CCCC(CNC(=O)c2ccncn2)C1 (configuration not stated),-7.41
5,COc1c(C2CCCN2CC(=O)Nc2cc(C)no2)c(C)nn1C (configuration not stated),-10.7
6,CCCN1CCC(CC(=O)NCc2cc(O)ncn2)CC1,-11.6
7,CCN1C[C@H]2CCN(C(=O)c3cc[nH]n3)CC[C@H]2S1(=O)=O,-14.6
8,Cc1ccccc1C1CCN(CCn2cc(-c3nccs3)nn2)C1 (configuration not stated),49.5
9,O=C(NCCc1cccs1)[C@]12COC[C@H]1CN(Cc1ccncc1)C2,-9.54
10,CCC(=O)Nc1cccc(OCC(=O)N2CC=CC2C(C)C)c1 (configuration not stated),-22.1
11,O=C(c1cnns1)N1CCN(c2ccc(F)cc2Cl)CC1,4.28
12,COC(=O)N1CCC2(CC1)N=C(CCC(C)C)NC2=O,-8.4
13,CNc1cc(C2CCCN2C(=O)c2ccc(=O)[nH]n2)ccn1 (configuration not stated),-2.78
14,CC(C)OCCCN(Cc1ccncc1)Cc1cc(F)cc(F)c1,58.6
15,COc1ncc(-c2nccn2-c2ccccc2CN2CCOCC2)cn1,-7.32
16,Cc1cnn(CC2CN(Cc3nc4ccccc4o3)CCO2)c1 (configuration not stated),-12.1
17,CCOCCC(=O)NCCNc1nccc(C(F)(F)F)n1,2.23
18,Cc1cnn(C(C)C2CC2)c1NC(=O)c1ccc(Cn2cnnn2)cc1 (configuration not stated),-10.2
19,CCc1nnsc1C(=O)N1CCCN(Cc2ccccc2)CC1,-8.56
20,O=C(CSC1=NS(=O)(=O)c2cc(F)ccc2N1)c1ccccc1,-3.16
21,Cc1nc(CN(C)C(=O)Nc2cnn(CC3CCCO3)c2)cs1 (configuration not stated),-1.56

row,SMILES,cytotoxicity at 70.5 h [%]
1,Cc1nn(CC(=O)N2CCCCC2Cn2cccn2)c(C)c1Cl (configuration not stated),-0.411
2,Cc1cc(N2CCN(C(=O)c3cc(Cl)c[nH]3)CC2)nc(N)n1,-6.18
3,O=C(CCc1cccc(C2CCNCC2)n1)N1CCCCC1,-12.2
4,Fc1cnc(N2CCN3C[C@H](Oc4cncnc4)C[C@H]3C2)nc1,5.05
5,CN(C)c1cc(C(=O)N2CCN(S(C)(=O)=O)CC2)ccn1,-1
6,CCCn1c(SCC(N)=O)nnc1-c1csc2c1CCCC2,-9.81
7,O=C(O)c1ccccc1-n1cnc(CN2CCCCCC2)c1,-1.66
8,O=c1cc(N2CCCC2)cnn1CC(F)F,-6.13
9,O=C(O)C1(n2cccn2)CCN(Cc2nc(-c3ccccc3)no2)CC1,-9.66
10,CCC(=O)Nc1ccccc1Sc1nc(Br)nn1C,-8.59
11,COC(=O)N1CCN(CCCc2nnnn2-c2ccccc2)CC1,8.7
12,Cc1ncc(CN2CCC(O)(c3ccccc3F)CC2)cn1,-0.616
13,O=C(CCc1ccncc1)N1CCc2cc(Cl)cc(Cl)c2C1,17.4
14,Nc1nccc(NCc2cc3n(n2)CCCN(C2CCCCC2)C3)n1,-1.68
15,Cc1ncnc2c1CCN(CC1CCOC1)CC2 (configuration not stated),-8.05
16,Cc1nccn1-c1cccc(C2CCCN2)n1 (configuration not stated),-13.4
17,Cc1nccc(N[C@H]2CN(CCS(C)(=O)=O)C[C@@H]2C2CC2)n1,18.1
18,CCc1nc(CN2CCCN(C(=O)CCCOC)CC2)cs1,2.4
19,COc1ccc(OCCNC(=O)CN(C)Cc2nnc(C)n2C)cc1,29.6
20,C=C(C)COCCNC(=O)Nc1cccc(Cn2nc(C)nc2C)c1,19.9
21,O=C(NCc1cncc2c1CCN(Cc1cccc(F)c1)C2)C1CC1,-1.35

row,SMILES,cytotoxicity at 70.5 h [%]
1,CCCS(=O)(=O)NCCc1ncc(CC)s1,-0.431
2,COC[C@@H]1CC[C@H]2[C@H](CCN2S(=O)(=O)c2cccc(C)c2)O1,-11.1
3,c1cc(CN2CCC(n3cc(CN4CCCC4)nn3)CC2)cs1,-5.26
4,Cc1c(C(=O)O)sc2nc(C(F)(F)F)ccc12,-18.5
5,Cc1c(CNCc2nn(-c3ccccc3)c3c2CCC3)cc(C#N)n1C,4.96
6,O=C([C@@H]1Cc2[nH]cnc2CN1C(=O)NC1CCCCC1)N1CCCC1,-7.01
7,CCN(CC1CCOC1)C(=O)Nc1ccc(N2CCCC2)nc1 (configuration not stated),-0.947
8,CC(=O)Nc1ccc(Cl)c(C(=O)N(C)C(C)c2nccs2)c1 (configuration not stated),-3.55
9,O=C(O)c1ccccc1C1CCN(C2CCN(c3ccccc3)CC2)C1 (configuration not stated),0.408
10,O=c1oc(-c2ccc(F)cc2)nn1CC1CCOC1 (configuration not stated),16.4
11,CC(=O)NC1CCCN(C(=O)CCc2cccnc2)C1 (configuration not stated),19.2
12,COCCN1CC2(CCCN(C(=O)NCc3ccccc3)C2)CCC1=O (configuration not stated),0.704
13,Cc1ccc(C2CN(Cc3cnc(-c4ccccn4)s3)CCO2)o1 (configuration not stated),22.5
14,CCC1c2ccsc2CCN1C(=O)NCCNc1ncccn1 (configuration not stated),0.287
15,CN([C@@H]1CCC[C@@H](n2ccnc2)[C@@H]1O)S(=O)(=O)c1cn(C)cn1,19.9
16,CCc1nc(C)sc1CN(Cc1ccncc1)C1CCN(C)CC1,-6.03
17,CC(C)Cc1nc(CN2CCC3(CCCO3)CCC2=O)no1 (configuration not stated),0.922
18,COc1ncc(NCc2cccc(C#N)c2)cc1C(N)=O,-1.66
19,COc1ccccc1Nc1nc2c(C)nn(C)c2c(=O)n1C,26.9
20,CS(=O)(=O)CCCNC1(c2cccc(F)c2)CC1,-7.6
21,O=C(C1CCOCC1)N1C[C@@H](F)[C@@H](OCc2nc3cc(F)ccc3[nH]2)C1,-2.48

row,SMILES,cytotoxicity at 70.5 h [%]
1,Cc1cnn(C2CCCN(C(=O)c3cccc(Cn4ccnc4)c3)C2)c1 (configuration not stated),20.1
2,CC(C)CN1CCC2(CCN(C(=O)c3ccc(F)cc3)CC2)C1=O,-5.58
3,O=C(c1ccccc1C(F)(F)F)N1C[C@@H](CN2CCOCC2)[C@@H](CO)C1,-6.68
4,CCCOC(C)C(=O)NCc1cc2n(n1)CCCN(C1CCCCC1)C2 (configuration not stated),0.0071
5,CC(C)NC(=O)C(c1ccccc1)N1CCn2c(nnc2C2CC2)C1 (configuration not stated),2.95
6,CCCC1COCCN1Cc1ccc(C(=O)O)cc1 (configuration not stated),-4.7
7,COc1cccc(-c2cc(C(=O)N3N=C(C)CC3(O)C(F)F)[nH]n2)c1 (configuration not stated),-11
8,Cc1cc(=O)[nH]c(=O)n1COCCOCc1ccccc1,25.1
9,CN1CCC(NC(=O)Nc2ccc(F)c(Br)c2)C1=O (configuration not stated),21
10,CSc1cccc(CC(=O)N[C@@H]2CCNC[C@H]2O)c1,10.3
11,COc1cccc(CNC(=O)CN2CCCC(Cn3cncn3)C2)c1 (configuration not stated),-1.72
12,Cc1cccc(CN2CCC3(CC2)COC(COCC2CC2)C3)n1 (configuration not stated),-6.77
13,N#CCCCS(=O)(=O)NC1(c2ccc(F)cc2)CC1,-8.06
14,CC(C)OCCC(=O)N(C)CCCc1cc(-c2ccccc2)no1,42.3
15,COc1cc(F)ccc1-c1nc2c([nH]1)c(C1CC1)nn2C,-10.9
16,OC1(CN2CCCC(Cn3cncn3)C2)CCCCC1 (configuration not stated),6.45
17,CNc1nc(CNC(=O)Nc2cccc(-c3nnco3)c2)cs1,-18.7
18,CN(Cc1cnc(N)nc1)C(=O)c1coc(COc2cccc(F)c2)n1,0.199
19,CC(O)CN1CCC(CNCc2cccc(C(=O)N(C)C)c2)CC1 (configuration not stated),1.45
